Reference: article PMC5104457, “ATP-Competitive MLKL Binders Have No Functional Impact on Necroptosis” (PLoS ONE, 2016)
Read-outs that look alike come from different tables or passages of the source.

Legend:
[1] = system: RIPK3 phosphorylation of MLKL in 293T cells; assay: MLKL phosphorylation assay (MSD), RIPK3-dependent phospho Ser358; format: cell-based, human; settings: 293T cells with GFP-MLKL and RIPK3-mCherry, 30 min compound, normalized to DMSO
Protocol: The cDNA clones of human MLKL (RC213152) and human RIPK3 (RC209549) were purchased from Origene. To generate GFP-MLKL and RIPK3-mCherry, coding sequences of the corresponding cDNA sequences were PCR amplified and cloned into Biogen’s mammalian expression vector.
293T cells grown in 10 cm plates were transfected with GFP-MLKL alone or both GFP-MLKL and RIPK3-mCherry plasmids. After 24 hours, cells were harvested and replated into poly D lysine coated 96W plate with 20,000 cells/ml. Four hours later, cells were treated with MLKL compounds for 30 min and incubated at 37°C. Thirty minutes later, the media was removed and cells were lysed in 150μl of Cell lysis buffer (Cell Signaling, MA) containing both protease and phosphatase inhibitors. The lysates were transferred to 96 well MSD plates (Meso Scale Discovery, MD) that were precoated with anti-mouse MLKL antibody H00197259-M02, 3B2, Novus Biologicals, CO), and incubated overnight at 4°C. After washing the plates three times with 1x MSD wash buffer (50mM TRIS-HCl, 150mM NaCl, 0.02% Tween 20, pH7.5), 100 μl of 0.5μg/ml of rabbit-anti-MLKL phospho Ser358 (Abcam AB187091) was added to each well. The plates were incubated for 2 hours at room temperature. After three washes with MSD wash buffer, 100 μ l of 0.5ug/ml of SULFO-tag labeled anti-rabbit IgG was added to each well and incubated for 1 hour at room temperature. After three washes, 1x Read bufferT (Meso Scale Discovery, MD) was added and the electrochemiluminescence (ECL) was measured with a MSD Sector Imager 600.

FADD (-/-) Jurkat cells = assay: Necroptosis assay: rescue from TNF-α induced cell death; format: cell-based; settings: Homo sapiens; for IC50: read-out: Necroptosis cell IC50
Protocol: Necroptosis assays were performed at Charles River Laboratories (United Kingdom) and at Biogen. […] On the day of the experiment, cells were counted using Nexcelom Bioscience Cell Meter Vision and pelleted by centrifugation. Cell pellets were resuspended in fresh medium at 500,000 cells per mL and transferred to assay-ready compound plates prepared in 384-well white TC plates (Greiner #781080) at 20μl cells per well. Cells and compound were incubated at room temperature for 30 minutes followed by +/- stimulation with 15ng/ml TNF-α (Cell signalling Technologies #8902LF) overnight at 37°C. In the morning, plates were equilibrated to room temperature for 30 minutes and 25μl of CellTiter-Glow (CellTiter-Glo 2.0 Assay, Promega # G9243) diluted 1:4 in PBS was added to each well and allowed to incubate for 10 minutes at room temperature. Luminescence was read on an Envision plate reader (Perkin Elmer).
TNF-α added to these cells induces necroptosis or cell death. The term “Rescue” refers to the ability of a compound to prevent loss of cell viability in the presence of TNF. Definitions of the presence or absence of compound or TNF stimulation in the wells that were used to calculate degree of rescue or viability is defined in Table 1.
100% percent rescue is defined as the value of the “no TNF” wells minus the value of wells treated with “TNF”.
Percent Rescue is then the ratio of the intensity value of the experimental “well” minus the value of “TNF” treated wells divided by the overall difference between the value of “no TNF” treated wells and the value of “TNF” treated wells.
%rescue=((well - TNF)/(no TNF - TNF))x100

pseudokinase MLKL-1 = molecular target: T1, pseudokinase MLKL-1 (Homo sapiens, UniProt Q8NB16); assay: Differential scanning fluorimetry (thermal shift), MLKL pseudokinase domain; format: binding; settings: 10 μM compound, 1 μM protein, average of triplicates; read-out: MLKL Pseudo-kinase thermal shift at 10 μM
T1 construct: sub-cloning residues 191 to 471 of the pseudokinase domain of human MLKL cDNA; His6 (thrombin cleavable) (N); made in house; host or cells: Escherichia coli BL21 (DE3)
T1 sequence (Q8NB16 191-471): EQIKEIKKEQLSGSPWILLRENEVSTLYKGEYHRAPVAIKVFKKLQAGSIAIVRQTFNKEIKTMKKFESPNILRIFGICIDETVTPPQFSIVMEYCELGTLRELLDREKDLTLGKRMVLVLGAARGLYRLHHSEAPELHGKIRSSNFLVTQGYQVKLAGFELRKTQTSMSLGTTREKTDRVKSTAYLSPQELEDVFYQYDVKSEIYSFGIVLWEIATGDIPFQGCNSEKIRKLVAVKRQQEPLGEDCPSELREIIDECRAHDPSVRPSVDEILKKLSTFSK
Excerpt: MLKL-1 was constructed by sub-cloning residues 191 to 471 of the pseudokinase domain of human MLKL cDNA into a pET15b vector with a thrombin cleavable N-terminal six histidine fusion tag (His-MLKL-1). MLKL-2 had the same protein boundaries and fusion tag system as MLKL-1 but the dual mutations E366A and K367A were introduced using site directed mutagenesis and was expressed in the same vector (His-MLKL-2).
(§1) To measure the thermal stabilization of the proteins upon compound binding we employed differential scanning fluorimetry (DSF). The kinase domain of RIPK1 and the N-terminal domain HSP90α were expressed and purified as previously described. The pseudokinase MLKL-1, RIPK1 and Hsp90 were melted at 1μM final concentrations in 25mM HEPES pH 8.0, 250mM NaCl and 2.5mM DTT. Compounds were added to a final concentration of 10 μ M with a final DMSO concentration of 5%. The complexes were incubated on ice for 30 minutes. Protein Thermal Shift dye (Life Technologies) was added to 1X. The fluorescence intensities were measured using a Quantstudio real-time PCR system (Life Technologies) with excitation at 470 nm and emission at 586 nm. The samples, measured in triplicate, were heated from 25 to 85°C with a heating rate of […].

kinase domain of RIPK1 = molecular target: T2, kinase domain of RIPK1 (Homo sapiens, UniProt Q13546); assay: Differential scanning fluorimetry (thermal shift), RIPK1 kinase domain; format: binding; settings: 10 μM compound, 1 μM protein, average of triplicates
T2 construct: The kinase domain of RIPK1; made in house
T2 sequence (Q13546 17-289 limits assumed): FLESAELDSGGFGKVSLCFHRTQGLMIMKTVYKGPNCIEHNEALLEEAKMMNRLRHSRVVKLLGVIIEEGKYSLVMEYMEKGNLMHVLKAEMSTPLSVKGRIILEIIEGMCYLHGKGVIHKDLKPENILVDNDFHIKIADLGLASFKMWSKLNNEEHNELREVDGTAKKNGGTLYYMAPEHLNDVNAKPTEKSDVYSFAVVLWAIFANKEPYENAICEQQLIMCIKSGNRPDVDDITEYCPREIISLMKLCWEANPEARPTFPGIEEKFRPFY
Protocol: as §1

403 non-mutant kinases = assay: DiscoverX kinase selectivity panel; format: binding; settings: 1 μM compound
Excerpt: We then characterized several compounds that were expected to bind to MLKL across a broad panel of 403 non-mutant kinases at DiscoverX.

Compound	effect on RIPK3-dependent phosphorylation of MLKL (phospho Ser358, in words) ([1]; listed as Cpd 1)	IC50 (FADD (-/-) Jurkat cells; Jurkat)	EC50 (FADD (-/-) Jurkat cells; FADD deficient Jurkat cells, TNF stimulation)	ΔTm at 10 µM (pseudokinase MLKL-1)	ΔTm at 10 µM (kinase domain of RIPK1)	number of kinases inhibited out of 403 (403 non-mutant kinases)	effect on RIPK3-dependent phosphorylation of MLKL (phospho Ser358, in words) [1]	IC50 (FADD (-/-) Jurkat cells; FADD deficient Jurkat cells, TNF-α 15 ng/ml overnight, average of duplicates)	number of kinases inhibited out of 403 (403 non-mutant kinases; listed as Cpd 4)
CN(c1ccc(NC(=O)Nc2ccc(OC(F)(F)F)cc2)cc1)c1ccnc(Nc2cccc(S(N)(=O)=O)c2)n1 [cpd 1, reference compound]	does not impact its phosphorylation	1850 nM	1850 nM	5 to 6 °C	5 to 6 °C	56	–	–	–
Nc1nccnc1C(=O)O[C@@H](C(=O)Nc1ccc(F)cc1)c1ccccc1 [cpd 4, 3-Amino-pyrazine-2-carboxylic acid (R)-(4-fluorophenylcarbamoyl)-phenyl-methyl ester]	–	–	–	4 °C	-0.15 °C	1	does not impact its phosphorylation	> 40000 nM	none
